Measured values reported in patent US20230321074A1, “USE OF CHIAURANIB IN COMBINATION WITH IMMUNE CHECKPOINT INHIBITOR IN ANTITUMOR THERAPY” (SHENZHEN CHIPSCREEN BIOSCIENCES, CO., LTD., priority 2020, published 2023).
“And” between values parts separate entries of the source, which are not always exact repeats. Equal entries are not always repeated. “Also recorded” adds a separate entry of the source.

Tests used:
[1] = cited from earlier work
[2] = system: colonic cancer cell line CT-26; test: Efficacy on tumor Balb/c mouse models inoculated with colonic cancer cell line CT-26 (tumor volume); assay type: in vivo; conditions: CT-26 in Balb/c mice; chiauranib 20 mg/kg intragastric once a day; PD-1 antibody 10 mg/kg i.p. twice a week; vs solvent control
Procedure: A large number of CT-26 cells were cultured and kept in a logarithmic growth state. After the number of cells reached a required level, the cells were digested and collected by trypsin, thoroughly washed twice with a large amount of PBS to remove trypsin and serum components, centrifuged at room temperature at 800 rpm for 10 min, and a supernatant was discarded. The cells were resuspended in DMEM without FBS, and the cell concentration was adjusted to 5×10^6 cells/mL.
Under sterile conditions, the cell suspension was injected subcutaneously into the back of Balb/c mice at 100 μL/injection, one injection per mouse. […]
(§1) 8 days after cell inoculation, tumors grew to an average volume of about 100 mm^3, and the tumor-bearing mice were randomly divided into four groups (9 mice per group), that is, a solvent control group, a chiauranib group (20 mg/kg, intragastric administration, once a day), a PD-1 antibody group (10 mg/kg, intraperitoneal injection, twice a week), and a chiauranib and PD-1 antibody combined administration group, marked, raised in separate cages, administered daily in groups, and observed for tumor formation. The longest diameter (length) and the widest diameter (width) perpendicular to the longest diameter of the tumor was measured by using a vernier caliper every 2 days, and the tumor volume was calculated according to a formula: TS=length×(width)^2/2, and recorded. […]

[3] = system: mouse liver cancer H22 cells; test: Efficacy on female BALB/c mouse models subcutaneously transplanted with mouse liver cancer H22 cell line; assay type: in vivo
Procedure: Mouse liver cancer H22 cells (purchased from CCTCC; cell No. TC-00011) were cultured in an RPMI-1640 medium (purchased from Gibco) containing 10% fetal bovine serum. H22 cells in exponential growth phase were collected, resuspended in PBS to an appropriate concentration, and subcutaneously inoculated into mice. Female mice were subcutaneously inoculated with 1×10^6 H22 cells on the right front side. After tumors grew to an average volume of 104 mm^3, the mice were randomly grouped (see Table 1) according to the tumor size, administration was carried out on the day of grouping, and the day of inoculation of tumor cells was defined as day 0.
On the 19th day of the experiment (day 15 of administration in groups), an average tumor volume of the solvent control group was measured to be 2060.99 mm^3, the experiment was completed, photos of the tumor-bearing mice were taken, the tumors were taken out and weighed, and photos of the tumors were taken. A formula for calculating tumor volume: tumor volume (mm^3)=1/2×(a×b^2) (where, a represents a long diameter, and b represents a short diameter).

[4] = Body weight, deaths and tolerability in H22 tumor-bearing BALB/c mice; assay type: in vivo; conditions: H22 model
[5] = Body weight and tolerability in B-hPD-1/hPD-L1 humanized mice transplanted with MC38-hPD-L1; assay type: in vivo, mouse; conditions: for Body weight (g) before administration / Body weight change (g) Day 27 of administration / Body weight (g) Day 27 of administration in groups: MC38-hPD-L1 model; for Body weight (g) before administration: baseline; for Body weight (g) before administration / Body weight (g) Day 27 of administration in groups: mean ± standard error; for toxic side effects on animals / safety: at test doses: chiauranib 2.5 mg/kg, reference PD-L1 antibody 1 mg/kg and 3 mg/kg
Procedure: (§2) A certain number of cells were cultured and collected, the MC38-hPD-L1 cells resuspended in PBS were subcutaneously inoculated into B-hPD-1/hPD-L1 humanized mice on the right side at a concentration of 5×10^5 cells/0.1 mL and a dose of 0.1 mL/mouse. After an average tumor volume reached about 104 mm^3, appropriate mice were selected according to tumor volume and body weight, and uniformly divided into 6 experimental groups, 8 mice per group, and administration was carried out on the day of grouping.

[6] = system: MC38-hPD-L1 colon cancer cells; test: Efficacy on B-hPD-1/hPD-L1 humanized mouse MC38-hPD-L1 colon cancer model; assay type: in vivo; conditions: for inhibitory effect on growth of MC38-hPD-L1 subcutaneously transplanted tumors (experiment summary): at test doses: chiauranib 2.5 mg/kg; for inhibitory effect on growth of MC38-hPD-L1 subcutaneously transplanted tumors (experiment summary) / inhibitory effect on growth of MC38-hPD-L1 subcutaneously transplanted tumors (tumor volume) / inhibitory effect on growth of MC38-hPD-L1 subcutaneously transplanted tumors (tumor weight): reference PD-L1 antibody 1 mg/kg and 3 mg/kg; for Tumor volume (mm^3) before administration: baseline; for Tumor volume (mm^3) before administration / Tumor volume (mm^3) Day 27 of administration in groups / Tumor weight: mean ± standard error; for inhibitory effect on growth of MC38-hPD-L1 subcutaneously transplanted tumors (tumor volume): day 27, P<0.05 vs control; for inhibitory effect on growth of MC38-hPD-L1 subcutaneously transplanted tumors (tumor volume) / inhibitory effect on growth of MC38-hPD-L1 subcutaneously transplanted tumors (tumor weight): chiauranib 2.5 mg/kg; for inhibitory effect on growth of MC38-hPD-L1 subcutaneously transplanted tumors (tumor weight) / Tumor weight: end of experiment; for inhibitory effect on growth of MC38-hPD-L1 subcutaneously transplanted tumors (tumor weight): P<0.05 vs control; for Tumor weight / TGITV (%) / TGITW (%): day 27; for TGITV (%): tumor inhibition rate by tumor volume; for TGITW (%): tumor weight inhibition
Procedure: Mouse colon cancer MC38 cells were purchased from Shunran Biology, cultured in an incubator under 5% CO2 at 37° C., and a medium was Dulbecco's Modified Eagle's Medium containing 10% inactivated fetal bovine serum. Biocytogen carried out genetic modification on the MC38 cells to enable the MC38 cells to overexpress human PD-L1, and knocked out mouse PD-L1, and the cells were named MC38-hPD-L1 cells. A reference PD-L1 antibody used in the experiment was constructed and produced by the in-house laboratory according to a sequence of the marketed antibody drug MPDL3280A.
as §2
Results were recorded, tumor inhibition rates (TGITV) were calculated, and statistical analysis between groups was carried out according to tumor volume.

[7] = system: spleen lymphocyte subsets CD4 and CD8; test: Proportions of spleen lymphocyte subsets in CT-26 tumor-bearing mice (flow cytometry); assay type: in vivo, mouse; conditions: CT-26 tumor-bearing Balb/c mice; chiauranib 20 mg/kg intragastric once a day; PD-1 antibody 10 mg/kg i.p. twice a week; after last administration on 14th day
Procedure: as §1, with “recorded. The mice were subjected to intragastric administration once a day regularly, and after the last administration on the 14th day, the mice were sacrificed to take the spleens and make a single cell suspension. 1×10^6 spleen cells were taken and stained with fluorescein labelled anti-CD4 and CD8 antibodies (1:200) at 4° C. for 30 min. After being washed, the cells were resuspended in PBS, and detected by using a flow cytometer FACSCanto II.” for “recorded.”

[8] = chiauranib 5 mg/kg p.o. QD, mouse PD-1 antibody 5 mg/kg i.p. BIW
[9] = groups G2, G3, G5 (chiauranib 2.5 mg/kg; Reference PD-L1 antibody 1 mg/kg)
[10] = chiauranib 2.5 mg/kg p.o. QD, Reference PD-L1 antibody 1 mg/kg i.p. Q3D
[11] = Reference PD-L1 antibody 3 mg/kg i.p. Q3D, chiauranib 2.5 mg/kg p.o. QD in the combination
[12] = groups G4, G6 (Reference PD-L1 antibody 3 mg/kg; chiauranib 2.5 mg/kg in the combination)

## avelumab+BSC: PD-L1 antibody drug avelumab (Bavencio, Pfizer and Merck KGaA) plus best supportive care
[1]; patients with advanced UC after platinum-based chemotherapy
  median OS: 21.4 months
[1]; vs BSC alone, 95% CI 0.56, 0.86, 1-sided p=0.0005, all enrolled patients
  overall survival (OS) hazard ratio [HR]: 0.69
[1]; vs BSC group
  increase of OS: more than 7 months

## COc1ccc2c(Oc3ccc4c(C(=O)Nc5ccccc5N)cccc4c3)ccnc2c1 [chiauranib, Chiauranib]
[2]
  relative tumor inhibition rate: 39%
[3]; (1 - T/C) x 100%, chiauranib 5 mg/kg p.o. QD, mouse PD-1 antibody 5 mg/kg i.p. BIW
  TGI (%) Day 19 (relative tumor inhibition rate): 26%
[3]; TRTV/CRTV x 100%, chiauranib 5 mg/kg p.o. QD, mouse PD-1 antibody 5 mg/kg i.p. BIW
  T/C (%) Day 19: 74%
[3]; day 15 of administration, chiauranib 5 mg/kg p.o. QD x 15 days, mouse PD-1 antibody 5 mg/kg i.p. BIW x 5, mean ± standard error
  Tumor volume (mm^3) Day 19: 1527.40 mm^3 and 1527.40 ± 145.56 mm^3
[3]; day of grouping, baseline before treatment, mean ± standard error
  Tumor volume (mm^3) Day 5: 104.09 ± 2.73 mm^3
[3]; relative tumor volume Vt/V0, Day 19, chiauranib 5 mg/kg p.o. QD, mouse PD-1 antibody 5 mg/kg i.p. BIW
  RTV: 14.51
[4]; [8]
  Body weight change rate (%) Day 19: 5.59%
  Number of animals of experiment at the beginning/end: 10/10
[4]; day of grouping, baseline, mean ± standard error
  Average body weight (g) Day 5: 21.3 ± 0.3 g
[4]; end of experiment, chiauranib 5 mg/kg p.o. QD, mouse PD-1 antibody 5 mg/kg i.p. BIW, mean ± standard error
  Average body weight (g) Day 19: 22.4 ± 0.3 g
[5]; [9]
  Body weight (g) before administration: 21.1 ± 0.3 g
[5]; [10]
  Body weight change (g) Day 27 of administration: +3.1 g
  Body weight (g) Day 27 of administration in groups: 24.2 ± 0.6 g
[5]
  toxic side effects on animals / safety: do not produce toxic side effects to animals; also recorded: do not produce toxic and side effects on animals
[6]
  inhibitory effect on growth of MC38-hPD-L1 subcutaneously transplanted tumors (experiment summary): significant inhibitory effects
  inhibitory effect on growth of MC38-hPD-L1 subcutaneously transplanted tumors (tumor volume): significant inhibitory effects
  inhibitory effect on growth of MC38-hPD-L1 subcutaneously transplanted tumors (tumor weight): significant inhibitory effects
[6]; [9]
  Tumor volume (mm^3) before administration: 104 ± 4 mm^3
[6]; [10]
  Tumor volume (mm^3) Day 27 of administration in groups: 1021 ± 158 mm^3
  Tumor weight: 0.837 ± 0.108 g
  TGITV (%): 58.6%
  TGITW (%): 61.7%
[7]
  average proportion of spleen lymphocyte subset CD4: 9.9%
  average proportion of spleen lymphocyte subset CD8: 6.1%

## Reference PD-L1 antibody: constructed and produced by the in-house laboratory according to a sequence of the marketed antibody drug MPDL3280A
[5]; [11]
  Body weight change (g) Day 27 of administration: +3.7 g
  Body weight (g) Day 27 of administration in groups: 25.0 ± 0.5 g
[5]; [9]
  Body weight (g) before administration: 21.6 ± 0.3 g
[5]; [12]
  Body weight (g) before administration: 21.3 ± 0.5 g
[5]; [10]
  Body weight change (g) Day 27 of administration: +3.8 g
  Body weight (g) Day 27 of administration in groups: 25.4 ± 0.4 g
[5]
  toxic side effects on animals / safety: do not produce toxic side effects to animals; also recorded: do not produce toxic and side effects on animals
[6]; [11]
  Tumor volume (mm^3) Day 27 of administration in groups: 1207 ± 195 mm^3
  Tumor weight: 1.182 ± 0.199 g
  TGITV (%): 50.3%
  TGITW (%): 45.9%
[6]
  inhibitory effect on growth of MC38-hPD-L1 subcutaneously transplanted tumors (experiment summary): significant inhibitory effects
  inhibitory effect on growth of MC38-hPD-L1 subcutaneously transplanted tumors (tumor volume): significant inhibitory effects
  inhibitory effect on growth of MC38-hPD-L1 subcutaneously transplanted tumors (tumor weight): significant inhibitory effects
[6]; [9]
  Tumor volume (mm^3) before administration: 104 ± 4 mm^3
[6]; [12]
  Tumor volume (mm^3) before administration: 104 ± 3 mm^3
[6]; [10]
  Tumor volume (mm^3) Day 27 of administration in groups: 1469 ± 144 mm^3
  Tumor weight: 1.316 ± 0.106 g
  TGITV (%): 38.5%
  TGITW (%): 39.8%
